Experimental data reported in patent US10358434B2, “2-(3-pyridinyl)-1H-benzimidazole derivative compound and medicament containing same” (NIHON MEDI-PHYSICS CO., LTD., priority 2014, dated 2019).

Legend:
[1] = test system: human adrenal gland section expressing aldosterone-producing adenoma; assay: In vitro autoradiography using human adrenal adenoma; assay type: binding; conditions: section of FIG. 17(b)
Method in brief: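 Frozen 7-μm sections of human adrenal bearing aldosterone-producing adenoma were immersed 10 min in radioligand (5-33 kBq/mL) in PBS with 1% fatty-acid-free BSA, washed, then exposed to imaging plates for 16-20 h. Equal-area ROI PSL in adenoma (B2) versus normal cortex (B1) gave B2/B1, corrected for nuclide half-life, added activity and exposure time.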

[2] = In vivo kinetics experiment (radioactivity distribution); parameters: species or system Wistar male rat; conditions: rat, caudal vein
Method in brief: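 Male Wistar rats (9 weeks) under isoflurane received approximately 1 to 3.7 MBq radiotracer in saline with 1 w/v % ascorbic acid by tail-vein injection. At 10, 30 and 60 min, rats were exsanguinated; blood, organs and remaining body weighed and counted, giving % ID/g and adrenal-to-tissue ratios.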

[3] = Plasma stability evaluation (TLC analysis); assay type: in vitro ADME; conditions: 37° C., 60 minutes, TLC analysis
Method in brief: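 Radiolabelled compounds were incubated in heparin-treated pooled normal human plasma at 37° C for 60 minutes. After methanol deproteinization and centrifugation, stability was assessed by TLC under the conditions used for each compound's synthesis.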

With [123I]c1ccc2nc(-c3cncc(Cn4ccnn4)c3)n(C3CC3)c2c1 [[^123I] 603, 1-Cyclopropyl-2-[3-(1H-1,2,3-triazol-1-ylmethyl)pyridin-5-yl]-6-[^123I]iodo-1H-benzimidazole] the B2/B1 accumulation ratio [1] was 1.01, the “B2 (PSL value, aldosterone-producing adenoma)” value ([1]; site 71b) was 2043 and the “B1 (PSL value, normal adrenal cortex)” value ([1]; site 72b) was 2027. For the same compound, the “Adrenal gland/blood ratio of radioactivity accumulation” value (shortened to “Adrenal gland/blood ratio”) ([2]; 10 min after administration) was 52.24 ± 16.82, the “Adrenal gland/fat ratio of radioactivity accumulation” value (shortened to “Adrenal gland/fat ratio”) ([2]; 10 min after administration) was 49.21 ± 30.24 and the “Adrenal gland/kidney ratio of radioactivity accumulation” value (“Adrenal gland/kidney ratio” for short) ([2]; 10 min after administration) was 3.95 ± 1.50. For the same compound, the “Adrenal gland/liver ratio of radioactivity accumulation” value (shortened to “Adrenal gland/liver ratio”) ([2]; 10 min after administration) was 4.37 ± 1.12, the “Adrenal gland/muscle ratio of radioactivity accumulation” value (shortened to “Adrenal gland/muscle ratio”) ([2]; 10 min after administration) was 34.85 ± 6.45 and the “Adrenal gland/small intestine ratio of radioactivity accumulation” value (“Adrenal gland/small intestine ratio” below) ([2]; 10 min after administration) was 3.44 ± 1.04. For the same compound, the “Radioactivity distribution Adrenal gland” value ([2]; 10 min after administration) was 10.24 ± 4.48 % ID/g, the “Radioactivity distribution Bladder (including urine)” value (shortened to “Radioactivity distribution Bladder”) ([2]; 10 min after administration) was 0.43 ± 0.13 % ID/g and the “Radioactivity distribution Blood” value ([2]; 10 min after administration) was 0.13 ± 0.01 % ID/g. For the same compound, the “Radioactivity distribution Fat” value ([2]; 10 min after administration) was 0.11 ± 0.01 % ID/g, the “Radioactivity distribution Femur” value ([2]; 10 min after administration) was 0.85 ± 0.40 % ID/g and the “Radioactivity distribution Heart” value ([2]; 10 min after administration) was 0.65 ± 0.09 % ID/g. The “Radioactivity distribution Kidney” value ([2]; 10 min after administration) was 2.09 ± 0.09 % ID/g, the “Radioactivity distribution Large intestine” value ([2]; 10 min after administration) was 0.11 ± 0.01 % ID/g and the “Radioactivity distribution Liver” value ([2]; 10 min after administration) was 4.09 ± 0.45 % ID/g. For the same compound, the “Radioactivity distribution Lung” value ([2]; 10 min after administration) was 0.98 ± 0.16 % ID/g, the “Radioactivity distribution Muscle (lower limbs)” value ([2]; 10 min after administration) was 0.18 ± 0.05 % ID/g and the “Radioactivity distribution Remaining whole body” value ([2]; 10 min after administration) was 0.24 ± 0.01 % ID/g. For the same compound, the “Radioactivity distribution Small intestine” value ([2]; 10 min after administration) was 1.29 ± 0.12 % ID/g, the “Radioactivity distribution Spleen” value ([2]; 10 min after administration) was 5.59 ± 1.78 % ID/g and the “Radioactivity distribution Stomach” value ([2]; 10 min after administration) was 0.66 ± 0.34 % ID/g. The “Radioactivity distribution Testis” value ([2]; 10 min after administration) was 0.04 ± 0.01 % ID/g, the “Radioactivity distribution Whole brain” value ([2]; 10 min after administration) was 0.01 ± 0.00 % ID/g and the “Adrenal gland/blood ratio” value ([2]; 30 min after administration) was 199.21 ± 91.92. For the same compound, the “Adrenal gland/fat ratio” value ([2]; 30 min after administration) was 106.15 ± 23.20, the “Adrenal gland/kidney ratio” value ([2]; 30 min after administration) was 12.16 ± 7.12 and the “Adrenal gland/liver ratio” value ([2]; 30 min after administration) was 17.77 ± 9.08. The “Adrenal gland/muscle ratio” value ([2]; 30 min after administration) was 98.15 ± 67.95, the “Adrenal gland/small intestine ratio” value ([2]; 30 min after administration) was 3.25 ± 1.07 and the “Radioactivity distribution Adrenal gland” value ([2]; 30 min after administration) was 15.46 ± 8.64 % ID/g. The “Radioactivity distribution Bladder” value ([2]; 30 min after administration) was 1.13 ± 0.19 % ID/g, the “Radioactivity distribution Blood” value ([2]; 30 min after administration) was 0.10 ± 0.02 % ID/g and the “Radioactivity distribution Fat” value ([2]; 30 min after administration) was 0.12 ± 0.03 % ID/g. For the same compound, the “Radioactivity distribution Femur” value ([2]; 30 min after administration) was 0.83 ± 0.03 % ID/g, the “Radioactivity distribution Heart” value ([2]; 30 min after administration) was 0.64 ± 0.04 % ID/g and the “Radioactivity distribution Kidney” value ([2]; 30 min after administration) was 1.65 ± 0.27 % ID/g. The “Radioactivity distribution Large intestine” value ([2]; 30 min after administration) was 0.14 ± 0.02 % ID/g, the “Radioactivity distribution Liver” value ([2]; 30 min after administration) was 1.89 ± 0.21 % ID/g and the “Radioactivity distribution Lung” value ([2]; 30 min after administration) was 0.97 ± 0.10 % ID/g. The “Radioactivity distribution Muscle (lower limbs)” value ([2]; 30 min after administration) was 0.16 ± 0.02 % ID/g, the “Radioactivity distribution Remaining whole body” value ([2]; 30 min after administration) was 0.27 ± 0.01 % ID/g and the “Radioactivity distribution Small intestine” value ([2]; 30 min after administration) was 3.40 ± 0.80 % ID/g. For the same compound, the “Radioactivity distribution Spleen” value ([2]; 30 min after administration) was 6.71 ± 0.48 % ID/g, the “Radioactivity distribution Stomach” value ([2]; 30 min after administration) was 0.61 ± 0.14 % ID/g and the “Radioactivity distribution Testis” value ([2]; 30 min after administration) was 0.05 ± 0.01 % ID/g. For the same compound, the “Radioactivity distribution Whole brain” value ([2]; 30 min after administration) was 0.01 ± 0.00 % ID/g, the “Adrenal gland/blood ratio” value ([2]; 60 min after administration) was 235.46 ± 58.57 and the “Adrenal gland/fat ratio” value ([2]; 60 min after administration) was 108.45 ± 23.85. For the same compound, the “Adrenal gland/kidney ratio” value ([2]; 60 min after administration) was 13.73 ± 3.51, the “Adrenal gland/liver ratio” value ([2]; 60 min after administration) was 20.07 ± 5.16 and the “Adrenal gland/muscle ratio” value ([2]; 60 min after administration) was 124.82 ± 30.33. The “Adrenal gland/small intestine ratio” value ([2]; 60 min after administration) was 2.42 ± 0.71, the “Radioactivity distribution Adrenal gland” value ([2]; 60 min after administration) was 18.65 ± 1.67 % ID/g and the “Radioactivity distribution Bladder” value ([2]; 60 min after administration) was 3.04 ± 1.32 % ID/g. For the same compound, the “Radioactivity distribution Blood” value ([2]; 60 min after administration) was 0.06 ± 0.01 % ID/g, the “Radioactivity distribution Fat” value ([2]; 60 min after administration) was 0.12 ± 0.04 % ID/g and the “Radioactivity distribution Femur” value ([2]; 60 min after administration) was 0.90 ± 0.10 % ID/g. The “Radioactivity distribution Heart” value ([2]; 60 min after administration) was 0.56 ± 0.01 % ID/g, the “Radioactivity distribution Kidney” value ([2]; 60 min after administration) was 1.23 ± 0.01 % ID/g and the “Radioactivity distribution Large intestine” value ([2]; 60 min after administration) was 0.55 ± 0.52 % ID/g. For the same compound, the “Radioactivity distribution Liver” value ([2]; 60 min after administration) was 0.96 ± 0.10 % ID/g, the “Radioactivity distribution Lung” value ([2]; 60 min after administration) was 0.78 ± 0.03 % ID/g and the “Radioactivity distribution Muscle (lower limbs)” value ([2]; 60 min after administration) was 0.14 ± 0.01 % ID/g. The “Radioactivity distribution Remaining whole body” value ([2]; 60 min after administration) was 0.28 ± 0.04 % ID/g, the “Radioactivity distribution Small intestine” value ([2]; 60 min after administration) was 3.98 ± 1.32 % ID/g and the “Radioactivity distribution Spleen” value ([2]; 60 min after administration) was 5.62 ± 1.11 % ID/g. The “Radioactivity distribution Stomach” value ([2]; 60 min after administration) was 0.89 ± 0.21 % ID/g, the “Radioactivity distribution Testis” value ([2]; 60 min after administration) was 0.05 ± 0.01 % ID/g and the “Radioactivity distribution Whole brain” value ([2]; 60 min after administration) was 0.01 ± 0.00 % ID/g. For the same compound, the “Radiochemical purity after incubation in human plasma” value [3] was 94%.
